System: PCSK9
Test: PCSK9 lowering in sandwich culture human hepatocytes (SCHH)
Assay type: cell-based
Conditions: sandwich culture primary cryopreserved human hepatocytes, secreted PCSK9 by AlphaLISA
Procedure: PCSK9 Lowering and Compound Concentration Determination in Sandwich Culture Human Hepatocytes (SCHH)
Test compound in-vitro pharmacokinetic and pharmacodynamic relationships were measured in sandwich culture primary cryopreserved human hepatocytes. Within these studies SCHH cells (BD Biosciences IVT) were thawed at 37° C. then placed on ice, after which the cells were added to pre-warmed (37° C.) In VitroGRO-HT media and centrifuged at 50×g for 3 min. The cell pellet was re-suspended to 0.8×10^6 cells/mL in InVitroGRO-CP plating medium and cell viability determined by trypan blue exclusion. On day 1, hepatocyte suspensions were plated in BioCoat 96-well plates at a density of 80000 cells/well in a volume of 0.1 mL/well. After 18 to 24 hours of incubation at 37° C. in 5% CO2, cells were overlaid with ice-cold 0.25 mg/mL BD Matrigel Matrix Phenol Red-Free in incubation medium at 0.1 mL/well. Cultures were maintained at 37° C. in 5% CO2 in InVitroGRO-HI (FBS-free media), which was replaced every 24 hours and time course treatments were initiated on day 5. […] Percent PCSK9 lowering versus vehicle treated cells was then determined for each time point and the maximum response (and the corresponding concentration and time when observed) is reported under the Sandwich Culture Hepatocyte (SCHH) PCSK9 lowering summarized in Table 3. […]

**Q.** `Cn1ncc(-c2ccc(C(=O)N(c3ncccc3Cl)[C@@H]3CCCNC3)cc2F)c1-c1nn[nH]n1` [Example 3, N-(3-chloropyridin-2-yl)-3-fluoro-4-[1-methyl-5-(2H-tetrazol-5-yl)-1H-pyrazol-4-yl]-N-[(3R)-piperidin-3-yl]benzamide] was tested. Which IC50 did it give?
**A.** Its IC50 is 63.4 µM.
